Read-outs that look alike come from different tables or passages of the source.

The test system of series [1] is Dark adaptation. The settings on record: for Night driving ability: one week later. On the procedure: A patient complains of difficulty driving at night, especially in going from a well-lit to a poorly-illuminated environment. […] One cc of Vitamin A and/or one of its visual pigment derivatives in a sustained release suspension is injected retrobulbarly on both sides. […] Six months later, the retrobulbar injections are repeated.
A patient complains of difficulty driving at night, especially in going from a well-lit to a poorly-illuminated environment. […] The patient has a cataract in the right eye and cataract surgery with an intraocular lens is performed. At the time of surgery, a small pellet of concentrated vitamin A and/or one of its visual pigment derivatives is placed in the eye for sustained release.

For series [2] the following is noted: chronic high dose oral (liver damage, osteoporosis, promotion of lung cancer in smokers); cited from earlier work.
In series [3] the test system is Dark adaptation abnormalities. As to conditions: Sorsby's fundus dystrophy patients, high dose oral, for as little as 1 week; cited from earlier work.
The conditions of series [4]: cited from earlier work.

On to `CC1=C(/C=C/C(C)=C/C=C/C(C)=C/CO)C(C)(C)CCC1` [Vitamin A, (2E,4E,6E,8E)-3,7-dimethyl-9-(2,6,-trimethylcyclohex-1-en-1-yl)nona-2,4,6,8-tetraen-1-ol], for which the Night driving ability result in series [1] (Example 1: patient, one cc sustained release suspension retrobulbarly on both sides) was “drives without difficulty at night”; in series [1] (Example 2: patient, small sustained release pellet placed in the eye at cataract surgery) it was “drives without difficulty at night”. The “Duration of delivery in effective concentrations to the retina” value in series [1] (human, in vivo) was 0.5-3 years. Further, the Systemic toxicity entry in series [2] was “associated systemic toxicity”. Besides, the Dark adaptation abnormalities entry in series [3] is on record as “rapidly normalize”.

Turning to `CC1=C(/C=C/C(C)=C/C=C/C(C)=C/C(=O)O)C(C)(C)CCC1` [all-trans-retinoic acid, retinoic acid], the “Photostability with BCD inclusion complex” value in series [4] (beta cyclodextrin inclusion complex formation (Lin et al., 2000)) is recorded as “increase the photostability”.

Turning to `CC1=C(/C=C/C(C)=C/C=C/C(C)=C/C=O)C(C)(C)CCC1` [retinal], in series [4] (beta cyclodextrin inclusion complex (Lerner et al., 1989)), the “Shielding from oxygen by BCD inclusion complex” value is listed as “can shield retinal from oxygen”.

Values taken from patent publication US20080275133A1, “Local Administration of Retinoids to Treat Deficiencies in Dark Adaptation” (University Of Calfornia-San Francisco, priority 2004, published 2008).
